Measured values as given in US9518046B2 (Calitor Sciences, LLC, priority 2015, dated 2016).

Key:
[1] = Compound stability in rat liver microsomes; assay type: in vitro ADME; conditions: for CLint scaled at 5 μM: liver microsomes, pH 7.4, in vivo CLint extrapolated from rat liver microsome incubation; for half-life at 5 μM: rat liver microsomes 0.5 mg protein/mL, compound 5 μM, NADPH 1.0 mM, pH 7.4, 37° C., read-out: Rat T1/2
Procedure: (§1) Human or rat liver microsomes incubations were conducted in duplicate in polypropylene tubes. The typical incubation mixtures consisted of human or rat liver microsomes (0.5 mg protein/mL), compounds of interest (5 μM) and NADPH (1.0 mM) in a total volume of 200 μL potassium phosphate buffer (PBS, 100 mM, pH 7.4). Compounds were dissolved in DMSO and diluted with PBS such that the final concentration of DMSO was 0.05%. The enzymatic reactions were commenced with the addition of protein after a 3-min preincubation and incubated in a water bath open to the air at 37° C. Reactions were terminated at various time points (0, 5, 10, 15, 30, 60 min) by adding equal volume of ice-cold acetonitrile. The samples were stored at −80° C. until LC/MS/MS assays.
(§2) The concentrations of compounds in the incubation mixtures of human or rat liver microsomes were determined by a LC/MS/MS method. The ranges of the linearity in the concentration range were determined for each tested compounds.
(§3) A parallel incubation was performed using denatured microsomes as the negative control, and reactions were terminated at various time points (0, 15, 60 min) after incubation at 37° C.
(§4) Dextromethorphan (70 μM) was selected as the positive control, and reactions were terminated at various time points (0, 5, 10, 15, 30, 60 min) after incubation at 37° C. Both positive and negative control samples were included in each assay to ensure the integrity of the microsomal incubation system.
(§5) The concentrations of compounds in human or rat liver microsome incubations were plotted as a percentage of the relevant zero time point control for each reaction. The in vivo CLint were extrapolated (ref.: Naritomi, Y.; Terashita, S.; Kimura, S.; Suzuki, A.; Kagayama, A.; and Sugiyama, Y.; Prediction of human hepatic clearance from in vivo animal experiments and in vitro metabolic studies with liver microsomes from animals and humans. Drug Metab. Dispos., 2001, 29: 1316-1324).

[2] = Compound stability in human liver microsomes; assay type: in vitro ADME; conditions: for half-life at 5 μM: human liver microsomes 0.5 mg protein/mL, compound 5 μM, NADPH 1.0 mM, pH 7.4, 37° C., read-out: Human T1/2; for CLint scaled at 5 μM: liver microsomes, pH 7.4, in vivo CLint extrapolated from human liver microsome incubation
Procedure: as §1, §2, §3, §4, §5

[3] = Pharmacokinetics after intravenous and oral administration in rats; assay type: in vivo; conditions: for CL/F / bioavailability: Rats; for CL/F: iv dosing, dose 1 mg/kg (0.5 for Ex. 1, 10, 11, 35; 0.48 for Ex. 24); for AUC(0-t) / half-life / Vd / bioavailability: rat, plasma; for AUC(0-t) / half-life / Vd: iv, 1 mg/kg; for Vd: read-out: Vss; for bioavailability: oral (p.o.) generally 5 or 10 mg/kg versus iv dosing
In short: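 Dosing used solution, suspension or capsule formulations: 1 or 2 mg/kg IV in all species; PO 5 or 10 mg/kg in mice and rats, 10 mg/kg in dogs and monkeys. Plasma sampled from 0.083 or 0.25 h up to 24 h post-dose; concentrations determined by LC/MS/MS in MRM mode.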

PI3K (p110δ/p85α) (h) = target: T1, PI3K (p110δ/p85α) (h) (Homo sapiens, UniProt O00329); experiment: PI3K (p110δ/p85α) (h) non-radioactive HTRF kinase assay; assay type: biochemical; conditions: Kinase inhibition data; performed at Millipore UK Ltd
T1 construct: purchased Millipore UK Ltd
Procedure: (§6) The above assay procedure can be used to determine the IC50 for inhibition and/or the inhibition constant, Ki.
PI3K (p110δ/p85α) (h) [Non-Radioactive Assay]
(§7) PI3K (p110δ/p85α) (h) is incubated in assay buffer containing 10 μM phosphatidylinositol-4, 5-bisphosphate and MgATP (concentration as required). The reaction is initiated by the addition of the MgATP mix. After incubation for 30 minutes at room temperature, the reaction is stopped by the addition of stop solution containing EDTA and biotinylated phosphatidylinositol-3,4,5-trisphosphate. Finally, detection buffer is added, which contains europium-labelled anti-GST monoclonal antibody, GST-tagged GRP1 PH domain and streptavidin-allophycocyanin. The plate is then read in timeresolved fluorescence mode and the homogenous time-resolved fluorescence (HTRF) signal is determined according to the formula HTRF=10000×(Em665 nm/Em620 nm).
(§8) The kinase assays described herein were performed at Millipore UK Ltd, Dundee Technology Park, Dundee DD2 1SW, UK.

PI3K (p110α/p85α) (h) = target: T2, PI3K (p110α/p85α) (h) (Homo sapiens, UniProt P42336); experiment: PI3K (p110α/p85α) (h) non-radioactive HTRF kinase assay; assay type: biochemical; conditions: Kinase inhibition data; performed at Millipore UK Ltd
T2 construct: purchased Millipore UK Ltd
Procedure: as §6
PI3K (p110α/p85α) (h) [Non-Radioactive Assay]
as §7, with “(p110α/p85α)” for “(p110δ/p85α)”, “phosphatidylinositol 4,5-bisphosphate” for “phosphatidylinositol-4, 5-bisphosphate”, “ATP solution.” for “MgATP mix.”, “streptavidin allophycocyanin.” for “streptavidin-allophycocyanin.”
as §8

PI3K (p120γ) (h) = target: T3, PI3K (p120γ) (h) (Homo sapiens, UniProt P48736); experiment: PI3K (p120γ) (h) non-radioactive HTRF kinase assay; assay type: biochemical; conditions: Kinase inhibition data; performed at Millipore UK Ltd
T3 construct: purchased Millipore UK Ltd
Procedure: as §6
PI3K (p120γ) (h) [Non-Radioactive Assay]
as §7, with “(p120γ)” for “(p110δ/p85α)”, “M” for “μM”
as §8

PI3K (h) p110β/p85α = target: T4, PI3K (h) p110β/p85α (Homo sapiens, UniProt P42338); experiment: PI3K (p110β/p85α) (h) non-radioactive HTRF kinase assay; assay type: biochemical; conditions: Kinase inhibition data; performed at Millipore UK Ltd
T4 construct: purchased Millipore UK Ltd
T4 sequence (P42338 whole entry): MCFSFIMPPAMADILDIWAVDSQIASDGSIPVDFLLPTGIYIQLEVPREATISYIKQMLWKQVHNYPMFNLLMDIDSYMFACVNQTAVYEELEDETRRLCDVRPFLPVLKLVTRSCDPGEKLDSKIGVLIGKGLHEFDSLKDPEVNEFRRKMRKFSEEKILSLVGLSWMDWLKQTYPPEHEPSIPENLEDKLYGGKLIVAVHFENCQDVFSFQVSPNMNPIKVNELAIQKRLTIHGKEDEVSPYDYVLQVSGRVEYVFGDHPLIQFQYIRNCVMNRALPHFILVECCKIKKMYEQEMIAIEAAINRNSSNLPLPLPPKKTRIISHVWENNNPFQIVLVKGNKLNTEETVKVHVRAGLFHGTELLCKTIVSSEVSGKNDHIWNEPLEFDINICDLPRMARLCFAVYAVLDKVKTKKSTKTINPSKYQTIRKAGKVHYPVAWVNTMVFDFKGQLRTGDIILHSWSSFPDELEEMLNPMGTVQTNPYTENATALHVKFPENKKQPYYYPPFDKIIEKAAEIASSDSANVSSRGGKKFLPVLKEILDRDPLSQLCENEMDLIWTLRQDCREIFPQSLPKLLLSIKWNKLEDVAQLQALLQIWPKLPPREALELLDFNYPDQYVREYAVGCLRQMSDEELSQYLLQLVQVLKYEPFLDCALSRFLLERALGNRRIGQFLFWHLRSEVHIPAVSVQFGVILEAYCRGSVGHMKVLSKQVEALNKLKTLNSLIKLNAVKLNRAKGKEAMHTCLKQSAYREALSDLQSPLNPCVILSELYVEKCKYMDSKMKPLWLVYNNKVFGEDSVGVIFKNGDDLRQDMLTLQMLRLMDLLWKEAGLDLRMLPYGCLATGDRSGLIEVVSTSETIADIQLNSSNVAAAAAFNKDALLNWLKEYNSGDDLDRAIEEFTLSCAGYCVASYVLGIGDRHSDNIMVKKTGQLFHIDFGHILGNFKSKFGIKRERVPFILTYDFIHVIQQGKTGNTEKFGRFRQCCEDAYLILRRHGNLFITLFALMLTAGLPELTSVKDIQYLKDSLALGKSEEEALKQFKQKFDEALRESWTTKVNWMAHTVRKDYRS
T4 sequence (P27986 whole entry partner): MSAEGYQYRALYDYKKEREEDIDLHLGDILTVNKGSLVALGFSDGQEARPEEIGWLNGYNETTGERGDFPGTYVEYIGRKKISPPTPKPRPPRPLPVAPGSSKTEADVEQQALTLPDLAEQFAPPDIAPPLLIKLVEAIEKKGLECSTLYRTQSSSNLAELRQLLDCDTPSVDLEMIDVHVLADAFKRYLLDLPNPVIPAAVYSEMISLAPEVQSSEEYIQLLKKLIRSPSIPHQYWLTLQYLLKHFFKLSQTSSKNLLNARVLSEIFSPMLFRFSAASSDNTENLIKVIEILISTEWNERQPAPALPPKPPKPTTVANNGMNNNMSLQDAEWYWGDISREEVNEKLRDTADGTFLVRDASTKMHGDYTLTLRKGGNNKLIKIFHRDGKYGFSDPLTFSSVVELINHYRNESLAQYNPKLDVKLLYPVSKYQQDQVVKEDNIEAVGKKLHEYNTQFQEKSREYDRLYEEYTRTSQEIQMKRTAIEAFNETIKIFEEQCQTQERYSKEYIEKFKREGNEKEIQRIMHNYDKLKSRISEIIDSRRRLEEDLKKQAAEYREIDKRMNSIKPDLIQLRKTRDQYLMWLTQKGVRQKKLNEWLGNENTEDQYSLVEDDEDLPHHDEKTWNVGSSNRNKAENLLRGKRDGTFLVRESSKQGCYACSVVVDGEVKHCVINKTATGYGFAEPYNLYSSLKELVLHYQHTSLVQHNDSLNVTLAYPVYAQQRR

T1 sequence (O00329 whole entry): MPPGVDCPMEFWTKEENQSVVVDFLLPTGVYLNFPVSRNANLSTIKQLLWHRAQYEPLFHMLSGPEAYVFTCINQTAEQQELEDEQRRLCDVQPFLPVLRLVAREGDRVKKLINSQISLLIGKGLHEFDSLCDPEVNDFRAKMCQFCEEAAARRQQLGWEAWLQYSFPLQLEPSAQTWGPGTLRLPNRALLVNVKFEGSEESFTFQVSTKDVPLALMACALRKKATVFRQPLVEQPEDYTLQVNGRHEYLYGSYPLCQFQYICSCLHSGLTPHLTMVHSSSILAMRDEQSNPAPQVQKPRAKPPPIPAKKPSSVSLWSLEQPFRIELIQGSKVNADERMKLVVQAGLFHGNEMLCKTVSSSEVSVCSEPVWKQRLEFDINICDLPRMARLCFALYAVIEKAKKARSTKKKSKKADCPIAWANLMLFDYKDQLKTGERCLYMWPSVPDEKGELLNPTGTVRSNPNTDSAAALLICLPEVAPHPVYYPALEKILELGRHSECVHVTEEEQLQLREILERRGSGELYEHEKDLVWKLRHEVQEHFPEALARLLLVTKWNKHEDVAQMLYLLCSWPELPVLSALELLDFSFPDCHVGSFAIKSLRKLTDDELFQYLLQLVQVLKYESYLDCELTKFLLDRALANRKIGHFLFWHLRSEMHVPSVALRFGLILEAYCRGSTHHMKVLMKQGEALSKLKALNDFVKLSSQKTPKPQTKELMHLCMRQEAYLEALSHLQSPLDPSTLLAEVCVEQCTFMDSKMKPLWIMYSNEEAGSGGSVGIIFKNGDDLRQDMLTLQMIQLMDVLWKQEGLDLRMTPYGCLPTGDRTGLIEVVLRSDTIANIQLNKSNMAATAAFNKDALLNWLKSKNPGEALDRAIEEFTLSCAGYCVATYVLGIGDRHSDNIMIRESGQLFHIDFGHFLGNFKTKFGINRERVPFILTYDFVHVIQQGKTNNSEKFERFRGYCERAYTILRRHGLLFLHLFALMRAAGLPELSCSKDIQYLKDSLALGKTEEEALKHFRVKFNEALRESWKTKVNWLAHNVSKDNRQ
T1 sequence (P27986 whole entry partner): as the sequence (P27986 whole entry partner) above
T2 sequence (P42336 whole entry): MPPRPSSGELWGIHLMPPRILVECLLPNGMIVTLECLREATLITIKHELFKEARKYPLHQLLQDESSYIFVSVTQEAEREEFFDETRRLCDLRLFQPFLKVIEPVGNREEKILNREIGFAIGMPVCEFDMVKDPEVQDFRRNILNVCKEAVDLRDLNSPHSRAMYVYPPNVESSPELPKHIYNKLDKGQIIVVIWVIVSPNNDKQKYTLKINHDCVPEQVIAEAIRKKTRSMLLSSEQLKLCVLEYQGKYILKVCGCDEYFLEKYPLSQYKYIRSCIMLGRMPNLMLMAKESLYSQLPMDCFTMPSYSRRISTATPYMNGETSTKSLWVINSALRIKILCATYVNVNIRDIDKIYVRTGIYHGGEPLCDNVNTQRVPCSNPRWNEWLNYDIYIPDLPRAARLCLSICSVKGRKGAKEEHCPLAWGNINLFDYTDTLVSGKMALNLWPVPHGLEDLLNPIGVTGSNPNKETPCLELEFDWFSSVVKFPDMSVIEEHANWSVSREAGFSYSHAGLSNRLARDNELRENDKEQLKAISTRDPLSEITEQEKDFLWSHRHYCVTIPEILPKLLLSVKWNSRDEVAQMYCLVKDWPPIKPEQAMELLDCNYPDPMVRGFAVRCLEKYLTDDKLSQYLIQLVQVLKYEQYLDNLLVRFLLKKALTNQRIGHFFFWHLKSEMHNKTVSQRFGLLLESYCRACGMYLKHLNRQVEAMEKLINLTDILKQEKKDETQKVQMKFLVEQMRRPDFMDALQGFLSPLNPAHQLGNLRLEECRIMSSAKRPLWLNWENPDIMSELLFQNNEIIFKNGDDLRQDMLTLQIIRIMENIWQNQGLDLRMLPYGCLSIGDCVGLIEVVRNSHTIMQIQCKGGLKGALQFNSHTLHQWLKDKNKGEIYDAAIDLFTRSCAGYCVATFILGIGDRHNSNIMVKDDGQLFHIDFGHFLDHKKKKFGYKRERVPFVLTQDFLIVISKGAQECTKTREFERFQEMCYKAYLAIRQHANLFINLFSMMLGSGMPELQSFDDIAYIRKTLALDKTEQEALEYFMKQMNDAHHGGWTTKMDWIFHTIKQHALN
T2 sequence (P27986 whole entry partner): as the sequence (P27986 whole entry partner) above
T3 sequence (P48736 whole entry): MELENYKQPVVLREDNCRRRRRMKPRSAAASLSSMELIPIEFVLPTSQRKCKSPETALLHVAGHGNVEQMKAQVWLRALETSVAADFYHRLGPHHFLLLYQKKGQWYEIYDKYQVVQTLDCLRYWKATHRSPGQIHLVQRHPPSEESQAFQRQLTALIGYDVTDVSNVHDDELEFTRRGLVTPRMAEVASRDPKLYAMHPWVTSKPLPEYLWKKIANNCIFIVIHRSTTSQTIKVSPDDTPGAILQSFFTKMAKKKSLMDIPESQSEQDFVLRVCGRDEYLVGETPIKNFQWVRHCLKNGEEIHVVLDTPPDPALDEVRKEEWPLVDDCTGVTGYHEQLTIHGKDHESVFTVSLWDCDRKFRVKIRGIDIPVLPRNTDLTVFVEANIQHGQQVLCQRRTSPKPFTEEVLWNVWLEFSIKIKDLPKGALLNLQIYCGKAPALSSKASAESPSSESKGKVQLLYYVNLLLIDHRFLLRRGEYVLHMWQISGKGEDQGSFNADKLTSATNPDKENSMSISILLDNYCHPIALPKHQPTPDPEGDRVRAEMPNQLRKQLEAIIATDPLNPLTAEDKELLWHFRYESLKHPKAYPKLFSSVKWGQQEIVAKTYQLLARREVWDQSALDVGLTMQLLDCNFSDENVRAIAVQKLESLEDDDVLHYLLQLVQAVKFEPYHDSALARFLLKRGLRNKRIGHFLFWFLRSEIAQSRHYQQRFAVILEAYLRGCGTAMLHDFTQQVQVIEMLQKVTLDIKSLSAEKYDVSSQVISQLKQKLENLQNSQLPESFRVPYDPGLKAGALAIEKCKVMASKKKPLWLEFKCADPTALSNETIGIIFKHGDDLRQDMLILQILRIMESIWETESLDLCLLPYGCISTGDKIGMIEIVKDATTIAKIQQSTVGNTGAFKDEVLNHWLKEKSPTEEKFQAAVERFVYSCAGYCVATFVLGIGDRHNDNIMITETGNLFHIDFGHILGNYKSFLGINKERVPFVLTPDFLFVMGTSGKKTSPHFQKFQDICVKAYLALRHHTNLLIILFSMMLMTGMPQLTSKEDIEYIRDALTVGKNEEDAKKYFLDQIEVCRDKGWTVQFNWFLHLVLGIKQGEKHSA

SMILES | CLint scaled at 5 μM [1] [mL/min/kg] | half-life at 5 μM [1] [h] | half-life at 5 μM [2] [h] | CLint scaled at 5 μM [2] [mL/min/kg] | CL/F [3] [mL/min/kg] | AUC(0-t) [3] [ng·h/mL] | half-life [3] [h] | Vd [3] [L/kg] | bioavailability [3] [%] | IC50 (PI3K (p110δ/p85α) (h)) [nM] | IC50 (PI3K (p110α/p85α) (h)) [nM] | IC50 (PI3K (p120γ) (h)) [nM] | IC50 (PI3K (h) p110β/p85α) [nM]
C[C@H](Nc1ncnc(N)c1-c1nnn(C)n1)c1nc2cccc(-c3cnn(C)c3)c2c(=O)n1-c1ccccc1 [Ex. 76, (S)-2-(1-((6-amino-5-(2-methyl-2H-tetrazol-5-yl)pyrimidin-4-yl)amino)ethyl)-5-(1-methyl-1H-pyrazol-4-yl)-3-phenylquinazolin-4(3H)-one] | 8.61 | 4.81 | 4.49 | 6.46 | 6.5 | 2510 | 1.45 | 0.77 | 105 |  |  |  | 
Cc1nnc(-c2c(N)ncnc2N[C@@H](C)c2nc3cccc(Cl)c3c(=O)n2C2CC2)o1 [Ex. 70, (S)-2-(1-((6-amino-5-(5-methyl-1,3,4-oxadiazol-2-yl)pyrimidin-4-yl)amino)ethyl)-5-chloro-3-cyclopropylquinazolin-4(3H)-one] | 37.8 | 1.1 | 1.1 | 26.3 | 44 | 399 | 0.85 | 3.3 | 96.4 | 50 |  |  | 
Cc1nc(-c2c(N)ncnc2N[C@@H](C)c2nc3cccc(-c4cnn(C)c4)c3c(=O)n2-c2ccccc2)no1 [Ex. 77, (S)-2-(1-((6-amino-5-(5-methyl-1,2,4-oxadiazol-3-yl)pyrimidin-4-yl)amino)ethyl)-5-(1-methyl-1H-pyrazol-4-yl)-3-phenylquinazolin-4(3H)-one] | 21.2 | 1.95 | 1.36 | 21.3 | 5.33 | 2920 | 1.76 | 0.78 | 109 |  |  |  | 
CC[C@H](Nc1ncnc(N)c1-c1nc(C)no1)c1nc2cccc(-c3cnn(C)c3)c2c(=O)n1C1CC1 [Ex. 71, (S)-2-(1-((6-amino-5-(3-methyl-1,2,4-oxadiazol-5-yl)pyrimidin-4-yl)amino)propyl)-3-cyclopropyl-5-(1-methyl-1H-pyrazol-4-yl)quinazolin-4(3H)-one] |  |  |  |  | 64 | 256 | 1.07 | 4.9 | 85.5 | 16 | 1320 | 479 | 752
CC[C@H](Nc1ncnc(N)c1-c1nnn(C)n1)c1nc2cccc(-c3cnn(C)c3)c2c(=O)n1C1CC1 [Ex. 78, (S)-2-(1-((6-amino-5-(2-methyl-2H-tetrazol-5-yl)pyrimidin-4-yl)amino)propyl)-3-cyclopropyl-5-(1-methyl-1H-pyrazol-4-yl)quinazolin-4(3H)-one] | 38.3 | 1.08 | 1 | 28.9 | 20.8 | 783 | 1.27 | 2.18 | 67.7 |  |  |  | 
Cc1nnc(-c2c(N)ncnc2N[C@@H](C)c2nc3cccc(-c4cnn(C)c4)c3c(=O)n2C2CC2)o1 [Ex. 67, (S)-2-(1-((6-amino-5-(5-methyl-1,3,4-oxadiazol-2-yl)pyrimidin-4-yl)amino)ethyl)-3-cyclopropyl-5-(1-methyl-1H-pyrazol-4-yl)quinazolin-4(3H)-one] | 10.1 | 4.08 | 1.58 | 18.3 | 23.2 | 777 | 1.14 | 1.86 | 71.7 | 47 |  |  | 
CC[C@H](Nc1ncnc(N)c1-c1nnc(C)o1)c1nc2cccc(-c3cnn(C)c3)c2c(=O)n1C1CC1 [Ex. 72, (S)-2-(1-((6-amino-5-(5-methyl-1,3,4-oxadiazol-2-yl)pyrimidin-4-yl)amino)propyl)-3-cyclopropyl-5-(1-methyl-1H-pyrazol-4-yl)quinazolin-4(3H)-one] |  |  |  |  | 65.8 | 270 | 0.98 | 3.85 | 35.9 | 142 | > 3000 | > 3000 | > 3000
Cc1nc(-c2c(N)ncnc2N[C@@H](C)c2nc3cccc(-c4cnn(C)c4)c3c(=O)n2C2CC2)no1 [Ex. 80, (S)-2-(1-((6-amino-5-(5-methyl-1,2,4-oxadiazol-3-yl)pyrimidin-4-yl)amino)ethyl)-3-cyclopropyl-5-(1-methyl-1H-pyrazol-4-yl)quinazolin-4(3H)-one] | 37.7 | 1.1 | 1.07 | 27 |  |  |  |  |  |  |  |  | 
CC[C@H](Nc1ncnc(N)c1-c1noc(C)n1)c1nc2cccc(-c3cnn(C)c3)c2c(=O)n1C1CC1 [Ex. 79, (S)-2-(1-((6-amino-5-(5-methyl-1,2,4-oxadiazol-3-yl)pyrimidin-4-yl)amino)propyl)-3-cyclopropyl-5-(1-methyl-1H-pyrazol-4-yl)quinazolin-4(3H)-one] | 17.3 | 2.4 | 0.821 | 35.3 | 32.2 | 511 | 1.36 | 4.25 | 78.7 |  |  |  | 
Cc1noc(-c2c(N)ncnc2N[C@@H](C)c2nc3cccc(Cl)c3c(=O)n2C2CC2)n1 [Ex. 41, (S)-2-(1-((6-amino-5-(3-methyl-1,2,4-oxadiazol-5-yl)pyrimidin-4-yl)amino)-ethyl)-5-chloro-3-cyclopropylquinazolin-4(3H)-one] |  |  |  |  | 84.3 |  |  |  |  |  |  |  | 
CC[C@H](Nc1ncnc(N)c1-c1nc(COC)n(C)n1)c1nc2cccc(Cl)c2c(=O)n1C1CC1 [Ex. 46] |  |  |  |  | 55.8 |  |  |  |  |  |  |  | 
